# Where “and” joins values, the source holds several entries; their conditions need not be identical. Equal values may be shown once. Entries after “also recorded” stand apart in the source; their conditions may differ.
# Columns and labels:
# [1] = system: IL-8; test: Secreted IL-8 protein by ELISA after in vitro siRNA transfection; assay type: cell-based, human; settings: for IL-8 protein levels reduced by: ELISA 36-48 hours after siRNA transfection
# Text: (§1) Cell lines and cultures. The derivation and source of the epithelial ovarian cancer cell lines HeyA8 and SKOV3ip1 have been previously described (Halder et al., 2006; Landen et al., 2005). The taxane-resistant cell line, SKOV3ip2.TR (a gift from Dr. Isaiah J. Fidler, M.D. Anderson Cancer Center [MDACC], Houston, Tex.), was derived from the SKOV3ip1 cells following serial passages in media containing paclitaxel. All cell lines were maintained and propagated in RPMI-1640 media supplemented with 15% fetal bovine serum and 0.1% gentamicin sulfate (Gemini Bioproducts, Calabasas, Calif.). SKOV3ip2.TR media also contained 100-150 ng/ml paclitaxel. All experiments were performed at 60-80% confluency and cell lines routinely tested for Mycoplasma. For in vivo experiments, cells were trypsinized, centrifuged at 1000 rpm at 4° C. for 7 minutes, washed twice with HBSS, and resuspended at a concentration of 1.25×10^6 cells/ml (HeyA8) and 5×10^6 cells/ml (SKOV3ip1 and SKOV3ip2.TR).
# SiRNA and in vitro transfections. IL-8 targeting siRNA purchased from Dharmacon (Lafayette, Colo.) was used to silence IL-8 expression in ovarian cancer cell lines (target sequence: GCCAAGGAGUGCUAAAGAA—SEQ ID NO:1). The sequence of the sense strand of the IL-8 siRNA is […] (SEQ ID NO:39) and the sequence of the antisense strand of the IL-8 siRNA is […] (SEQ ID NO:40). […] For in vitro transfections, 2×10^5 cells/well were plated into 6-well plates. The following day, cells were washed with PBS and incubated with 5 μg siRNA (IL-8 or control) with 30 μl of RNAiFect transfection reagent (Qiagen, Valencia, Calif.) in serum-containing media overnight at 37° C. Media was changed 24 hours after transfection and replaced with appropriate media.
# mRNA and protein IL-8 expression analysis for in vitro transfections. The expression of IL-8 in vitro was determined with RT-PCR and ELISA 36-48 hours after siRNA transfection. For RT-PCR analysis, RNA was isolated according to manufacturer's protocol (Ambion RNAqueous Kit, Ambion, Austin, Tex.), transcribed into cDNA, and amplified: 94° C.×2 min, 94° C.×30 sec, 61° C.×30 sec, 72° C. 2 min, repeated for 21 cycles, and 72° C.×7 min (Primers: IL-8 sense […] (SEQ ID NO:48); IL-8 anti-sense […] (SEQ ID NO:49); GAPDH sense GAGCCACATCGCTCAGAC (SEQ ID NO:50); GAPDH anti-sense CTTCTCATGGTTCACACCC (SEQ ID NO:51)). For ELISA, cells were treated with serum-free media day prior to analysis and IL-8 protein levels were quantified using a commercially available ELISA kit (R&D Systems, Minneapolis, Minn.). All experiments were performed in duplicate and control siRNA was used for comparison.
# [2] = system: HeyA8 cell line; test: Tumor cell invasion in vitro; assay type: cell-based, human
# [3] = system: HeyA8; test: IL-8 siRNA therapy in orthotopic murine ovarian cancer model, HeyA8; assay type: in vivo, mice
# Text: as §1
# (§2) Preparation of liposomal siRNA for in vivo delivery. For all in vivo experiments, siRNA constructs were incorporated into neutral liposomes (DOPC: 1,2-dioleoyl-sn-glycero-3-phosphatidylcholine), lyophilized, and stored at −20° C. (Landen et al., 2005). Prior to in vivo delivery, siRNA-DOPC preparations were resuspended with PBS to appropriate concentrations.
# (§3) IL-8 siRNA therapy in an orthotopic murine ovarian cancer model. Female athymic nude mice were purchased from the National Cancer Institute-Frederick Cancer Research and Development Center (Frederick, Md.) and housed in specific pathogen-free conditions. […]
# (§4) Development and characterization of the orthotopic murine model of advanced ovarian cancer used in these experiments has been previously described (Halder et al., 2006; Landen et al., 2005). […] Mice were monitored daily for signs of adverse effects and sacrificed when moribund. Tumor weights, number of tumor nodules, pattern of disease spread, presence and amount of ascites, and mouse weights were recorded at necropsy. […]
# [4] = system: MMP9; test: MMP9 expression after IL-8 siRNA transfection in vitro; assay type: cell-based, human; settings: HeyA8 and SKOV3ip1 cell lines; following siRNA transfection in vitro
# [5] = system: SKOV3ip2.TR; test: IL-8 siRNA therapy in orthotopic murine ovarian cancer model, taxane-resistant SKOV3ip2.TR; assay type: in vivo, mice
# Text: as §1, §2, §3, §4
# [6] = system: MMP2; test: MMP2 expression after IL-8 siRNA transfection in vitro; assay type: cell-based, human; settings: HeyA8 and SKOV3ip1 cell lines; following siRNA transfection in vitro
# [7] = system: SKOV3ip1; test: IL-8 siRNA therapy in orthotopic murine ovarian cancer model, SKOV3ip1; assay type: in vivo, mice
# Text: as §1, §2, §3, §4
# [8] = system: IL-8 mRNA; test: IL-8 mRNA expression by RT-PCR after in vitro siRNA transfection; assay type: cell-based, human; settings: RT-PCR 36-48 hours after siRNA transfection, compared to control siRNA
# Text: as §1
# SiRNA and in vitro transfections. […]
# mRNA and protein IL-8 expression analysis for in vitro transfections. The expression of IL-8 in vitro was determined with RT-PCR and ELISA 36-48 hours after siRNA transfection. […] For ELISA, cells were treated with serum-free media day prior to analysis and IL-8 protein levels were quantified using a commercially available ELISA kit (R&D Systems, Minneapolis, Minn.). […]
# [9] = system: SKOV3ip1; test: Tumor microvessel density (CD31) in orthotopic SKOV3ip1 tumors; assay type: in vivo, mice; settings: CD31 staining
# Method: (§5) Analysis of tumor microvessel density (CD31) and proliferation (PCNA). Microvessel density analysis was performed by immunostaining for CD31 antigen in orthotopic tumors as previously described (Halder et al., 2006). Briefly, frozen slides were rehydrated in acetone, blocked for endogenous peroxidases with H2O2 in methanol, and incubated overnight at 4° C. with rat anti-mouse m-CD31 antibodies (1:800; BD Bioscience, Pharmingen, San Jose, Calif.). The following day, slides were incubated with appropriate secondary antibody and detected with DAB substrate. Proliferation was assessed by staining for PCNA on paraffin slides as previously reported (Halder et al., 2006). After deparaffinization and rehydration, slides were heated in microwave at 98° C. for 10 min in 0.1M citrate buffer (pH 6.0) for antigen retrieval, blocked for endogenous peroxidases, and then incubated with fragment blocker (1:10; Jackson Immunoresearch Lab., West Grove, Pa.) overnight at 4° C. to reduce murine antigen interference. Following day, slides were incubated with primary antibody (1:50; anti-PCNA, PC-10, mouse IgG, Dako, Carpinteria, Calif.) for 4 hours at RT, washed with PBS, and re-incubated for 1 hour at RT with appropriate secondary. Detection was performed with DAB substrate. Quantification of MVD and proliferation was performed as previously described (Halder et al., 2006).
# [10] = system: HeyA8; test: Tumor microvessel density (CD31) in orthotopic HeyA8 tumors; assay type: in vivo, mice; settings: CD31 staining
# Method: as §5
# [11] = system: HeyA8; test: Tumor cell proliferation (PCNA) in orthotopic HeyA8 tumors; assay type: in vivo, mice; settings: compared to controls
# Method: as §5
# [12] = system: SKOV3ip1; test: Tumor cell proliferation (PCNA) in orthotopic SKOV3ip1 tumors; assay type: in vivo, mice; settings: compared to controls
# Method: as §5
# [13] = HeyA8 cells, media collected at various time points
compound,measurement,setting,value
"IL-8 siRNA: IL-8 targeting siRNA from Dharmacon; sense GCCAAGGAGUGCUAAAGAAUU (SEQ ID NO:39), antisense UUCUUUAGCACUCCUUGGCUU (SEQ ID NO:40) (incorporated into neutral DOPC liposomes, further chemistry not given here)",IL-8 protein levels reduced by,[1]; HeyA8,79% and 80%
same,"IL-8 returning to baseline, time after transfection",[1]; [13],≤ 96 h
same,"Maximum down regulation of IL-8, time after transfection",[1]; [13],48 h
same,IL-8 protein levels reduced by,[1]; SKOV3ip1,81% and 80%
same,tumor cell invasion in vitro,[2],decreased tumor cell invasion
same,No. nodules (mean ± SE),[3],3.4 ± 0.8
same,Tumor incidence (%),[3],100%
same,MMP9 expression,[4],decreased
same,No. nodules (mean ± SE),[5]; SKOV3ip2.TR,21.9 ± 3.4
same,Tumor incidence (%),[5]; SKOV3ip2.TR,90%
same,MMP2 expression,[6],decreased
same,No. nodules (mean ± SE),[7],21.0 ± 7.3
same,Tumor incidence (%),[7],70%
same,IL-8 mRNA expression,[8]; HeyA8,significantly reduced; also recorded: significantly decreased
same,IL-8 mRNA expression,[8]; SKOV3ip1,significantly reduced; also recorded: significantly decreased
CC(=O)O[C@@]12CO[C@@H]1C[C@H](O)[C@@]1(C)C(=O)[C@H](O)C3=C(C)[C@@H](OC(=O)[C@H](O)[C@@H](NC(=O)OC(C)(C)C)c4ccccc4)C[C@@](O)([C@@H](OC(=O)c4ccccc4)[C@H]21)C3(C)C [docetaxel],effect on MVD / tumor angiogenesis (in words),[9],Minimal effects
same,effect on MVD / tumor angiogenesis (in words),[10],Minimal effects
same,"tumor burden, average number of tumor nodules (in words)",[3]; compared to controls,reduced tumor burden
same,tumor growth reduction (tumor weight),"[5]; SKOV3ip2.TR taxane-resistant, compared to controls, docetaxel 35 μg",11%
same,"tumor burden, average number of tumor nodules (in words)",[7]; compared to controls,reduced tumor burden
same,"tumor cell proliferation, PCNA staining (in words)",[11],effective in reducing proliferation; also recorded: decreased tumor cell proliferation
same,"tumor cell proliferation, PCNA staining (in words)",[12],effective in reducing proliferation; also recorded: decreased tumor cell proliferation

# Reference: patent US8067390B2, “Therapeutic targeting of interleukins using siRNA in neutral liposomes” (The Board of Regents of the University of Texas System, priority 2007, dated 2011)
